According to the METLIN SMRT retention time set (Domingo-Almenara et al. 2019):

Experiment: gradient 5% acetonitrile 3 min, to 50% in 2 min, to 85% in 15 min, held 3 min, 100 µL/min
Conditions: column: Zorbax Extend-C18 2.1 x 50 mm; eluents: water / acetonitrile, 0.1% formic acid
How it was run: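 Standards, all pure, were combined into mixtures of ~100 molecules and run at 100 μL/min on a Zorbax Extend-C18 column (2.1 × 50 mm, 1.8 μm) with water and acetonitrile, each containing 0.1% formic acid. A coupled quadrupole time-of-flight mass spectrometer operated in positive and negative ionization mode. Retention time values come from computationally picked adduct peaks, each inspected manually.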

Compound | RP-LC retention time [s]
COc1ccccc1Nc1nc(-c2ccc(C)cc2)c(C)s1 | 1210
Cc1ccc(Cn2c(C)c(CNCCc3ccco3)c(C(=O)O)c2C)cc1 | 630
Cc1cc(S(=O)(=O)N2CCc3nc(-c4ccc(Cl)cc4)ncc3C2)ccc1F | 1260
O=C(c1ccc2ccccc2n1)N1CC2CN(S(=O)(=O)c3ccccc3)CC(C1)O2 | 769
CCN1C(=O)C2(CCN(S(=O)(=O)Cc3ccccc3Cl)CC2)c2ccccc21 | 1030
O=C(NC1CCN(c2cc(-c3ccc(F)cc3)[nH]n2)C1)c1ccc(Br)cc1 (configuration not stated) | 864
COc1cccc(NC(=O)Cn2nc3cc(C)nc(Nc4cc(C)cc(C)c4)n3c2=O)c1 | 1110
O=C(NC1CCS(=O)(=O)C1)C1CCN(S(=O)(=O)c2cccs2)CC1 (configuration not stated) | 616
Cc1noc(C)c1CC(=O)N1CCCC(c2nnc3n2CCN(C(=O)C2CC2)C3)C1 (configuration not stated) | 596
CCOc1ccccc1N1CCN(S(=O)(=O)c2nn(CC)cc2C(=O)NCC(=O)OC)CC1 | 896
O=C(C1CCN(c2nc3ccc(-c4ccsc4)nc3s2)CC1)N1CCCC1 | 893
Cc1ccc(Nc2nc(C(=O)NCCc3cnc[nH]3)nc3ccccc23)cc1 | 590
CN(C)C(=O)c1ccc2c(c1)N(CC(=O)NC1CCCCCCC1)C(=O)CS2 | 769
CCC(=O)N1CCc2sc(S(=O)(=O)N3CCN(c4ccc(C)cc4)CC3)cc2C1 | 1000
Cc1noc(C2(NC(=O)Cc3ccc(F)cc3)CCCCC2)n1 | 837
c1ccc2c(c1)OCC(c1nc(-c3ccc(-n4ccnc4)nc3)no1)O2 (configuration not stated) | 707
COc1ccc(OC)c(S(=O)(=O)N2CCC(n3cnnc3C)CC2)c1 | 652
Cc1ccccc1-c1cc2c(=O)n(Cc3nc(-c4ccccc4)no3)ccn2n1 | 1050
CC(=O)COc1cc(O)c2c(=O)cc(-c3ccccc3)oc2c1 | 938

Compound | RP-LC retention time [s]
COc1cc(CSc2nc(CC(=O)Nc3nccs3)cs2)cc(OC)c1 | 819
COCCNC(=O)c1ccc2c(c1)nc(C)n2-c1ccc(Br)cc1 | 666
Cc1scc2nc(C3CCC3)nc(N3CCC(C(=O)NC4CCCCC4)CC3)c12 | 752
Cc1noc(C)c1C1CCCN1C(=O)c1ccc2c(c1)OCO2 (configuration not stated) | 722
CN(Cc1ccccc1)C(=O)C1c2ccccc2C(=O)N(C)C1c1cccs1 (configuration not stated) | 877
Cc1ccc(-n2nccn2)c(C(=O)N2CCN(c3nc4cc(Cl)ccc4o3)CC[C@H]2C)c1 | 1080
CCNc1cc(N2CCC(CCC(=O)NCc3ccc(F)c(Cl)c3)CC2)ncn1 | 682
CNC(=O)Nc1ccc(C2(C(=O)NCc3ccco3)CCC2)cc1 | 670
Cc1cc(C(=O)N2CCCC2c2ccccc2Cl)on1 (configuration not stated) | 889
CC(C)CCNC(=O)c1c(OCC2CC2)cc(=O)n2c1CCCCC2 | 774
COc1ccc(-c2ccnc3nc(-c4ccccc4)nn23)cc1OC | 848
O=C(NCCOC(=O)c1ccco1)C(=O)Nc1nc(-c2ccccc2)cs1 | 887
C#CCOCC1CCN(C(=O)c2cc(-c3cccs3)[nH]n2)CC1 | 734
COC(=O)CCNC(=O)C1c2ccccc2C(=O)N(C2CCCCC2)C12CCCCC2 (configuration not stated) | 1010
CC1CCCN(CCCNC(=O)c2nnc(-c3ccc(S(=O)(=O)N4CCOCC4)cc3)o2)C1 (configuration not stated) | 634
Cc1noc(C2CCCCN2Cc2nc(-c3ccccn3)no2)n1 (configuration not stated) | 639
Cc1cc(C(=O)NCC2Cn3cccc3C(=O)N2C)n(C)n1 (configuration not stated) | 600
Cc1cc(-c2c(C)sc(C)c2S(=O)(=O)Nc2ccc(F)c(Cl)c2)n[nH]1 | 1120
COc1ccc(-c2nc(CNC(=O)c3ccc(-c4noc(C(C)C)n4)cc3)no2)cc1 | 1000

Compound | RP-LC retention time [s]
O=C(NCc1[nH]nc2ccccc12)c1ccoc1 | 655
Cc1cccc(N2C(=O)CN(S(C)(=O)=O)CC2(C)C(=O)NCc2ccc(Cl)cc2)c1C (configuration not stated) | 903
CCC(CC)NC(=O)C1(CCO)CCN(Cc2ccccc2)C1 (configuration not stated) | 618
O=C(Nc1ccc(F)cc1)C(=O)c1c[nH]c2ccccc12 | 918
CCn1cc(C)c(C(=O)O)c1CC(=O)NCCN1CCN(C)CC1 | 561
O=C(CN1C(=O)C2CCCCN2c2ccc(S(=O)(=O)N3CCCC3)cc21)NC1CCCCCC1 (configuration not stated) | 1000
O=C(CN1CCN(Cc2ccccc2F)C1=O)NCc1ccc(N2CCCC2)cc1 | 783
O=C(COc1ccccc1F)Nc1nnc(-c2cc(Cl)sc2Cl)o1 | 867
CC1CCCN(c2ccn3c(=O)n(CC(=O)Nc4cc(F)cc(F)c4)nc3n2)C1 (configuration not stated) | 849
N#Cc1ccc(O[C@@H]2c3ccccc3C[C@H]2N2CCC[C@@H](N)C2)c(Cl)c1 | 707
CCc1nc(-c2csc(S(=O)(=O)N3CCC(C(=O)NC4CCCCCCC4)CC3)c2)no1 | 1070
COC(=O)C1=CN(c2ccc(F)c(F)c2)c2ccc(F)cc2S1(=O)=O | 854
COc1ccc(CC(=O)N2CCCC2c2cc(C)on2)cc1OC (configuration not stated) | 716
COc1cccc(CNC(=O)C2(C)CCCN(C(=O)Nc3cc(OC)cc(OC)c3)C2)c1 (configuration not stated) | 844
O=C(NC1CCCCC1)C(c1ccc(Cl)cc1)N1CCN(C(=O)c2ccco2)CC1 (configuration not stated) | 773
Cc1ccc(C)c(CNC(=O)c2cnc(-c3ccccc3)nc2-c2ccncc2)c1 | 913
O=C(NCc1ccccc1)N1CCCC1c1nc(-c2ccc(F)cc2F)no1 (configuration not stated) | 862
O=C1C(c2ccncc2)N(Cc2ccco2)C(=O)CN1c1ccccc1 (configuration not stated) | 628

Further lines, results first:

RP-LC retention time [s] | Compound
630 | CN(C)S(=O)(=O)Nc1ccccn1
674 | Cc1ccc(NC(=O)N2CCN(c3cnn4c(C)nnc4c3)CC2)cc1Cl
786 | CN(CC1CCOCC1)S(=O)(=O)Cc1ccccc1F
707 | COc1ccc(OC)c(CNC(=O)c2nc(N3CCCC3)c3ccccc3n2)c1
773 | O=C(c1ccc(Cl)s1)N1CCC(N(C(=O)C2CC2)C2CCOCC2)CC1
961 | COc1ccc(-c2nc3cnccn3c2Nc2cccc(Cl)c2)cc1
1030 | CSc1cccc(NC(=O)CSc2nnc3c4cc(-c5ccc(C)c(C)c5)nn4ccn23)c1
940 | Cn1c(=O)c2c3c(cnc2n(C)c1=O)C(=O)CC(c1ccc(F)cc1)C3 (configuration not stated)
897 | Cc1sc2ccn(CC(C)C)c(=O)c2c1C(=O)N1CCCCCC1
755 | CN1C(=O)CCc2cc(NC(=O)Cc3ccccc3Cl)ccc21
780 | Cc1ccsc1C(=O)N1CCC2(CCCCO2)CC1
604 | CC1CCN(c2nc(C(=O)N3CCN(C(C)C)CC3)nc3c2cnn3C)CC1
636 | COc1nn(C)cc1C(=O)NCC(=O)Nc1cccc2nsnc12
1030 | CCn1c(C(=O)N(C)c2ccc(Br)cc2)cc2c(=O)oc3ccccc3c21
1180 | C#C[C@]1(O)CC[C@H]2[C@@H]3CCC4=Cc5oncc5CC4(C)[C@H]3CCC21C (some centres not stated)
989 | COc1ccc(NC(=O)c2noc3c2CCCCC3)cc1
635 | CCN1CCc2nc(-c3ccc(F)cc3)n(CC(=O)N3CCc4ccccc4C3)c(=O)c2C1
669 | O=C(Nc1cccnc1)c1c2c(nc3ccccc13)C(=O)N(C1CCCCC1)C2

RP-LC retention time [s] | Compound
655 | CCN(CC)C(=O)[C@]1(c2ccccc2)C[C@@H]1CN
708 | CCOCCOC1CCN(C(=O)Nc2ccc3c(c2)OCCO3)CC1
806 | Cc1ccc(NS(=O)(=O)c2cc(-c3[nH]ncc3C(=O)N3CCCCC3)oc2C)cc1F
705 | CCOc1ccc(NC(=O)Cn2nc3cc(C)nc(-c4ccccc4)n3c2=O)cc1
818 | CC(NC(=O)c1cc2n(n1)CCCC2)c1ccc(F)cc1 (configuration not stated)
1210 | Cc1ccc(NS(=O)(=O)c2cc(-c3nc(C(C)C)cs3)cs2)c(C)c1
797 | Cn1c(=O)c2cc(C(=O)Nc3ccc(F)cc3Cl)sc2n(C)c1=O
662 | Cc1c(Cl)cccc1NC(=O)CN1CCc2[nH]c3c(C)cc(F)cc3c(=O)c2C1
830 | O=C(NCc1ccco1)c1ccc2c(c1)N(Cc1ccc(F)cc1)C(=O)CO2
764 | CN(CC1CCOC1)C(=O)Nc1cc(F)c(F)c(F)c1 (configuration not stated)
891 | COc1ccc(NC(=O)Cn2c(=O)n(-c3ccc(C)cc3)c(=O)c3c2cc(C)n3C)cc1Cl
709 | COc1ccc(S(=O)(=O)NCCc2noc(C)n2)cc1
620 | O=C(Cn1ncn2nc(-c3ccccc3)cc2c1=O)N1CCN(c2ccccn2)CC1
706 | CCOc1coc(C(=O)NCCc2ccc(Cl)cc2)cc1=O
588 | Cc1cnc(C2CN(C3CCCCCC3)C2)n1Cc1ccccc1
1030 | CCc1ccc(NC(=O)c2cc(C)n3nccc3n2)cc1
634 | Clc1ccc(OCc2nc(-c3cccnc3)n[nH]2)cc1
656 | CCN(CC)S(=O)(=O)c1cccc(-c2cn3ccc(C)cc3n2)c1
